Test results taken from ChEMBL document CHEMBL1201862, “PubChem BioAssay data set” (2004).
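These data come from cells grown in 96-well plates and exposed to compound for 48 hours at five concentrations. GI50 marks 50% less growth.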 Calls of active or inactive are those of the source. No stated cut-off is given here; in the data, active = GI50 up to about 1.1 µM and inactive = higher.

Tests used:
Assay in all cases: growth of human tumour cells (NCI), 48 h
HT-29 = tested on: HT-29
MDA-MB-435 = tested on: MDA-MB-435
K562 = tested on: K562
OVCAR-4 = tested on: OVCAR-4
SK-MEL-28 = tested on: SK-MEL-28
HOP-62 = tested on: HOP-62
EKVX = tested on: EKVX
SK-MEL-5 = tested on: SK-MEL-5
CCRF-CEM = tested on: CCRF-CEM
MDA-N = tested on: MDA-N
HL-60 = tested on: HL-60
DU-145 = tested on: DU-145
OVCAR-3 = tested on: OVCAR-3
NCI-H226 = tested on: NCI-H226
IGROV-1 = tested on: IGROV-1
SF-295 = tested on: SF-295
MDA-MB-231 = tested on: MDA-MB-231
RPMI-8226 = tested on: RPMI-8226

Measured: GI50

CCOC(=O)c1ccc(NCc2ccc3nc(OC)c(OC)nc3c2)cc1
inactive: HT-29 > 100 µM | MDA-MB-435 > 100 µM | K562 > 100 µM | OVCAR-4 88.7 µM | SK-MEL-28 > 100 µM | HOP-62 > 100 µM | EKVX > 100 µM | SK-MEL-5 > 100 µM | CCRF-CEM > 100 µM | MDA-N > 100 µM | HL-60 47.8 µM | DU-145 > 100 µM | OVCAR-3 > 100 µM | NCI-H226 > 100 µM | IGROV-1 > 100 µM | SF-295 > 100 µM | MDA-MB-231 72.6 µM

Cc1cc(S(=O)(=O)NC2=NNC(C)CN2)c(S)cc1Cl (stereo not drawn)
inactive: HT-29 62.2 µM | RPMI-8226 20.1 µM | MDA-MB-435 32.2 µM | K562 27 µM | OVCAR-4 44.1 µM | SK-MEL-28 41.6 µM | HOP-62 48.8 µM | EKVX 96.6 µM | SK-MEL-5 35.1 µM | CCRF-CEM 36.9 µM | MDA-N 39.6 µM | HL-60 > 100 µM | DU-145 75.7 µM | OVCAR-3 53.7 µM | NCI-H226 45.2 µM | IGROV-1 23.9 µM | SF-295 46.3 µM | MDA-MB-231 62.2 µM

COc1ccc(-c2nc(SCC(=O)N/N=C/c3ccc(O)c(OC)c3)[nH]c2-c2ccc(OC)cc2)cc1
inactive: HT-29 21.9 µM | MDA-MB-435 32.4 µM | K562 20 µM | OVCAR-4 40.9 µM | SK-MEL-28 28.4 µM | HOP-62 24.6 µM | EKVX 33.3 µM | SK-MEL-5 17.7 µM | CCRF-CEM 3.44 µM | MDA-N 22.1 µM | HL-60 11.2 µM | DU-145 39.8 µM | OVCAR-3 18.8 µM | SF-295 20.2 µM | MDA-MB-231 24.7 µM

COc1ccc2c(c1)[n+]([O-])c(C(=O)C/C(=N\NC(=O)C[N+](C)(C)C)C(=O)Nc1cc(Cl)ccc1Cl)c(C)[n+]2[O-]
active: EKVX 0.0891 µM
inactive: HT-29 > 100 µM | RPMI-8226 > 100 µM | K562 > 100 µM | OVCAR-4 > 100 µM | SK-MEL-28 > 100 µM | HOP-62 > 100 µM | SK-MEL-5 > 100 µM | CCRF-CEM > 100 µM | HL-60 88.3 µM | OVCAR-3 > 100 µM | NCI-H226 > 100 µM | IGROV-1 > 100 µM | SF-295 > 100 µM

CS(=O)(=O)c1nc(-c2cc3c(c(S(C)(=O)=O)n2)CCCC3)cc2c1CCCCC2
inactive: HT-29 > 100 µM | RPMI-8226 > 100 µM | MDA-MB-435 > 100 µM | OVCAR-4 > 100 µM | SK-MEL-28 > 100 µM | HOP-62 31.6 µM | EKVX > 100 µM | SK-MEL-5 > 100 µM | CCRF-CEM > 100 µM | MDA-N > 100 µM | HL-60 > 100 µM | DU-145 > 100 µM | OVCAR-3 > 100 µM | NCI-H226 > 100 µM | IGROV-1 11.2 µM | SF-295 > 100 µM | MDA-MB-231 65.5 µM

Cc1csc(-n2c(C)nc3cc(Cl)ccc3c2=O)n1
inactive: HT-29 > 100 µM | MDA-MB-435 > 100 µM | K562 83.6 µM | OVCAR-4 45.4 µM | SK-MEL-28 > 100 µM | HOP-62 > 100 µM | EKVX 8.02 µM | SK-MEL-5 43.1 µM | CCRF-CEM 74.8 µM | MDA-N > 100 µM | HL-60 > 100 µM | DU-145 > 100 µM | OVCAR-3 78.9 µM | NCI-H226 > 100 µM | IGROV-1 33.2 µM | SF-295 > 100 µM | MDA-MB-231 > 100 µM
